Test results: patent US20160296499A1, “Spiroindoline Antiparasitic Derivatives” (ZOETIS SERVICES LLC, priority 2013, published 2016)
Like-named read-outs stand apart in the source and are kept apart here.

Experiments:
Haemonchus contortus L3 = assay: Haemonchus contortus, Larvae Stage 3 (HcL3) In Vitro Assay; settings: Haemonchus contortus
[1] = system: Dirofilaria immitis microfilariae; assay: Dirofilaria immitis, Microfilariae (DiMF) In Vitro Assay
[2] = target: T1, bovine vesicular acetylcholine transporter (VAChT) (Bos taurus, UniProt E1BK36); assay: Radioligand Binding Assay; settings: Bovine binding Ki, CHO-K1 membranes with recombinant bovine VAChT, [3H]Compound X6 0.3 nM
T1 sequence (E1BK36 1-524): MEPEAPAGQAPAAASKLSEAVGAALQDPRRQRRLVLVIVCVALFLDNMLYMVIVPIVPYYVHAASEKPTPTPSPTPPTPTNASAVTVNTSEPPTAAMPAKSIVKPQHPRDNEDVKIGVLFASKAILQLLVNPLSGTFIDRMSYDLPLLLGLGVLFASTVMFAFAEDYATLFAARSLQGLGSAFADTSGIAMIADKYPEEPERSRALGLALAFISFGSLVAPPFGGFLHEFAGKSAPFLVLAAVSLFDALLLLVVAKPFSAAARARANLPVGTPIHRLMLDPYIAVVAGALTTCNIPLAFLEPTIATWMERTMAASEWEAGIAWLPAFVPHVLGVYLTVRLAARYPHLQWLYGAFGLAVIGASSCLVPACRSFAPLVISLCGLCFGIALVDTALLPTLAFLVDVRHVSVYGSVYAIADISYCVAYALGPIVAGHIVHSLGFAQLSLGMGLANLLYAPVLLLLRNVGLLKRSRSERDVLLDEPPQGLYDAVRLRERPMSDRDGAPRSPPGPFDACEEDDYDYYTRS

[3] = 96 h, read-out: HcL3 MEC, Minimal Effective Concentration whereby worm motility is inhibited by approximately 70%, 37° C., tested 0.001-100 μM
[4] = Dirofilaria immitis, 72 h, read-out: Di MF, MEC, decrease in microfilariae motility by visual assessment, curve starting at 100 μM
[5] = 96 hours, 37° C., read-out: HcL3 MEC
[6] = Dirofilaria immitis, 72 hours, read-out: Di MF

Compound	minimal effective concentration (Haemonchus contortus L3; [3]) [µM]	minimal effective concentration [1, 4] [µM]	Ki [2] [nM]	minimal effective concentration (Haemonchus contortus L3; [5]) [µM]	minimal effective concentration [1, 6] [µM]	minimal effective concentration ([1]; MEC, decrease in microfilariae motility by visual assessment, 72 hours, curve starting at 100 μM, read-out: Di MF) [µM]
O=C(NCc1ccnc(Cl)c1)N1CC2(CCN(C/C=C/c3ccc(OC(F)(F)F)cc3)CC2)c2ccc(C(F)(F)F)cc21 [Example 130, (E)-N-((2-chloropyridin-4-yl)methyl)-1′-(3-(4-(trifluoromethoxy)phenyl)allyl)-6-(trifluoromethyl)spiro[indoline-3,4′-piperidine]-1-carboxamide]	1.8	18.2	193	–	–	–
O=C(NCc1ccnc(Cl)c1)N1CC2(CCN(C/C=C/c3ccc(Cl)c(Cl)c3)CC2)c2c(Cl)cccc21 [Example 131, (E)-4-chloro-N-((2-chloropyridin-4-yl)methyl)-1′-(3-(3,4-dichlorophenyl)allyl) spiro[indoline-3,4′-piperidine]-1-carboxamide]	3.3	10	184	–	–	–
N#Cc1cc2c(cc1C(F)(F)F)N(C(=O)NCc1ccnc(Cl)c1)CC21CCN(C/C=C/c2ccc(Cl)c(Cl)c2)CC1 [Example 132, (E)-N-((2-chloropyridin-4-yl)methyl)-5-cyano-1′-(3-(3,4-dichlorophenyl)allyl)-6-(trifluoromethyl)spiro[indoline-3,4′-piperidine]-1-carboxamide]	–	–	49.9	3.3	3.3	–
O=C(NCc1ccnc(Cl)c1)N1CC2(CCN(C/C=C/c3ccc(Cl)c(Cl)c3)CC2)c2cc(C(F)(F)F)ccc21 [Example 133, (E)-N-((2-chloropyridin-4-yl)methyl)-1′-(3-(3,4-dichlorophenyl)allyl)-5-(trifluoromethyl)spiro[indoline-3,4′-piperidine]-1-carboxamide]	–	–	546	3.3	7.6	–
O=C(NCc1ccnc(Cl)c1)N1CC2(CCN(C/C=C/c3ccc(Cl)c(Cl)c3)CC2)c2cc(Cl)c(C(F)(F)F)cc21 [Example 135, (E)-5-chloro-N-((2-chloropyridin-4-yl)methyl)-1′-(3-(3,4-dichlorophenyl)allyl)-6-(trifluoromethyl)spiro[indoline-3,4′-piperidine]-1-carboxamide]	–	–	118	3.3	57.4	–
O=C(NCc1ccnc(Cl)c1)N1CC2(CCN(C/C=C/c3ccc(Cl)c(Cl)c3)CC2)c2c1ccc(Cl)c2Cl [Example 136, (E)-4,5-dichloro-N-((2-chloropyridin-4-yl)methyl)-1′-(3-(3,4-dichlorophenyl)allyl)spiro[indoline-3,4′-piperidine]-1-carboxamide]	–	–	160	3.3	100	–
CN(C)c1ccc2c(c1)C1(CCN(C/C=C/c3ccc(Cl)c(Cl)c3)CC1)CN2C(=O)NCc1ccnc(Cl)c1 [Example 137, (E)-N-((2-chloropyridin-4-yl)methyl)-1′-(3-(3,4-dichlorophenyl)allyl)-5-(dimethylamino)spiro[indoline-3,4′-piperidine]-1-carboxamide]	3.3	10	516	–	–	–
O=C(NCc1ccnc(Cl)c1)N1CC2(CCN(C/C=C/c3ccc(C(F)(F)F)cc3)CC2)c2ccc(C(F)(F)F)cc21 [Example 138, (E)-N-((2-chloropyridin-4-yl)methyl)-6-(trifluoromethyl)-1′-(3-(4-(trifluoromethyl)phenyl)allyl)spiro[indoline-3,4′-piperidine]-1-carboxamide]	3.3	10	57.2	–	–	–
O=C(NCc1ccnc(Cl)c1)N1CC2(CCN(Cc3ccc4cc(F)ccc4c3)CC2)c2cc(Cl)ccc21 [Example 139, 5-chloro-N-((2-chloropyridin-4-yl)methyl)-1′-((6-fluoronaphthalen-2-yl)methyl)spiro[indoline-3,4′-piperidine]-1-carboxamide]	3.3	33	20.1	–	–	–
O=C(NCc1ccnc(Cl)c1)N1CC2(CCN(C/C=C/c3ccc(Cl)cc3)CC2)c2c1ccc(F)c2Cl [Example 140, (E)-4-chloro-1′-(3-(4-chlorophenyl)allyl)-N-((2-chloropyridin-4-yl)methyl)-5-fluorospiro[indoline-3,4′-piperidine]-1-carboxamide]	–	–	95.2	3.3	5.7	–
O=C(NCc1ccnc(Cl)c1)N1CC2(CCN(C/C=C/c3ccc(F)cc3)CC2)c2cc(Cl)c(Cl)cc21 [Example 141, (E)-5,6-dichloro-N-((2-chloropyridin-4-yl)methyl)-1′-(3-(4-fluorophenyl)allyl)spiro[indoline-3,4′-piperidine]-1-carboxamide]	–	–	164	3.3	4.4	–
O=C(NCc1ccnc(Cl)c1)N1CC2(CCN(C/C=C/c3ccc(Cl)cc3)CC2)c2cc(Cl)c(Cl)cc21 [Example 142, (E)-5,6-dichloro-1′-(3-(4-chlorophenyl)allyl)-N-((2-chloropyridin-4-yl)methyl)spiro[indoline-3,4′-piperidine]-1-carboxamide]	–	–	107	3.3	7.6	–
O=C(NCc1ccnc(Cl)c1)N1CC2(CCN(C/C=C/c3ccc(F)cc3)CC2)c2c1ccc(Cl)c2Cl [Example 143, (E)-4,5-dichloro-N-((2-chloropyridin-4-yl)methyl)-1′-(3-(4-fluorophenyl)allyl)spiro[indoline-3,4′-piperidine]-1-carboxamide]	–	–	114	3.3	5.7	–
O=C(NCc1ccnc(Cl)c1)N1CC2(CCN(C/C=C/c3ccc(Cl)cc3)CC2)c2c1ccc(Cl)c2Cl [Example 144, (E)-4,5-dichloro-1′-(3-(4-chlorophenyl)allyl)-N-((2-chloropyridin-4-yl)methyl)spiro[indoline-3,4′-piperidine]-1-carboxamide]	–	–	26.2	3.3	10	–
O=C(NCc1ccnc(Cl)c1)N1CC2(CCN(C/C=C/c3ccc(C(F)(F)F)cc3)CC2)c2cc(F)c(Cl)cc21 [Example 145, (E)-6-chloro-N-((2-chloropyridin-4-yl)methyl)-5-fluoro-1′-(3-(4-(trifluoromethyl)phenyl)allyl)spiro[indoline-3,4′-piperidine]-1-carboxamide]	3.3	5.7	47.4	–	–	–
O=C(NCc1ccnc(Cl)c1)N1CC2(CCN(C/C=C/c3ccc(Cl)c(Cl)c3)CC2)c2c1ccc(F)c2Cl [Example 146, (E)-4-chloro-N-((2-chloropyridin-4-yl)methyl)-1′-(3-(3,4-dichlorophenyl)allyl)-5-fluorospiro[indoline-3,4′-piperidine]-1-carboxamide]	3.3	5.7	21.7	–	–	–
O=C(NCc1ccnc(Cl)c1)N1CC2(CCN(C/C=C/c3ccc(Cl)cc3)CC2)c2cc(OC(F)(F)F)ccc21 [Example 147, (E)-1′-(3-(4-chlorophenyl)allyl)-N-((2-chloropyridin-4-yl)methyl)-5-(trifluoromethoxy)spiro[indoline-3,4′-piperidine]-1-carboxamide]	3.9	–	322	–	–	4.8
O=C(NCc1ccnc(F)c1)N1CC2(CCN(C/C=C/c3ccc(Cl)cc3)CC2)c2c(OC(F)(F)F)ccc(Cl)c21 [Example 148, (E)-7-chloro-1′-(3-(4-chlorophenyl)allyl)-N-((2-fluoropyridin-4-yl)methyl)-4-(trifluoromethoxy)spiro[indoline-3,4′-piperidine]-1-carboxamide]	100	3.3	2480	–	–	–
O=C(NCc1ccnc(Cl)c1)N1CC2(CCN(C/C=C/c3ccc(Cl)cc3)CC2)c2c1cccc2C(F)(F)F [Example 149, (E)-1′-(3-(4-chlorophenyl)allyl)-N-((2-chloropyridin-4-yl)methyl)-4-(trifluoromethyl)spiro[indoline-3,4′-piperidine]-1-carboxamide]	5.1	8.1	396	–	–	–
O=C(NCc1ccnc(Cl)c1)N1CC2(CCN(C/C=C/c3ccc(Cl)cc3)CC2)c2cc(OC(F)(F)F)c(Cl)cc21 [Example 150, (E)-6-chloro-1′-(3-(4-chlorophenyl)allyl)-N-((2-chloropyridin-4-yl)methyl)-5-(trifluoromethoxy)spiro[indoline-3,4′-piperidine]-1-carboxamide]	5.7	18.2	297	–	–	–
